What was measured:
[1] = tested on: Lewis lung tumor cell; settings: female mice implanted with Lewis lung tumor cell; Bernacki, page 93; cited from earlier work
[2] = molecular target: hexosaminidase from porcine placenta; assay: Inhibition of hexosaminidase activity, 4-nitrophenyl-N-acetyl-β-glucosaminide substrate, 96-well microplate (porcine placenta enzyme); type: biochemical; settings: pH 4.5, 10 min preincubation at room temperature, substrate 30 min at 37° C., read at 405 nm
Method: (§1) In a preliminary screen, test compounds are studied over a range of concentrations from 0.1 to 100 μg/ml. together with a control sample. Specifically, the test compound is added to individual wells and made up to a total volume of 100 μl. To each well is added 25 μl of 1M sodium citrate buffer pH 4.5 and 25 μl of enzyme (1 mμ) in 10 mM sodium citrate at pH 4.5. The material is mixed and incubated at room temperature for 10 minutes. Then 50 μl of 10 mM substrate (4-nitrophenyl-N-acetyl-8-glucosaminide, Sigma # N-91376) is added and the mixture is incubated at 37° C. for 30 minutes. The reaction is then killed by adding 100 μl of 2% sodium carbonate and the yellow color due to release of 4-nitrophenol is read at 405 nm in an Elisa reader. The results obtained in this preliminary screen are then examined and, if inhibition has taken place, the procedure is repeated using several concentrations over a narrower range to provide for a more precise determination of the IC50.

[3] = molecular target: hexosaminidase from human placenta; assay: Inhibition of hexosaminidase activity, 4-nitrophenyl-N-acetyl-β-glucosaminide substrate, 96-well microplate (human placenta enzyme); type: biochemical; settings: pH 4.5, 10 min preincubation at room temperature, substrate 30 min at 37° C., read at 405 nm
Method: as §1

Compound	increase of life span [1]	IC50 value for the inhibition of hexosaminidase from porcine placenta [2]	IC50 value for the inhibition of hexosaminidase from human placenta [3]
CC(=O)NC1=CO[C@H](CO)[C@@H](O)[C@@H]1O [2-acetamidoglucal]	63%	–	–
CC(=O)N[C@H]1CN2CC[C@H](O)[C@@H]2[C@@H](O)[C@@H]1O [[1S-(1α,6β,7α,8β,8aβ)]-6-acetamidooctahydro-1,7,8-indolizinetriol]	–	0.1 µg/mL	0.1 µg/mL
